Consider 15 compounds from US20210087206A1, “MACROCYCLIC KINASE INHIBITORS AND THEIR USE” (TURNING POINT THERAPEUTICS, INC., priority 2017, published 2021).

Structures are written as SMILES. Where only a bound is given, the exact number is not on record here.

For orientation: IC50 means the concentration at which inhibition is half-maximal. Low readings indicate greater potency, high ones weaker potency.

Common to all, as to test: Cell proliferation assay (CellTiter-Glo)
Format in all cases: cell-based
(In general: In ATP-based viability assays light output follows the ATP content of the culture.)

For one test, the target named is T1, BaF3 EML4-ALK (Homo sapiens, UniProt Q9UM73).
T1 construct: The EML4-ALK gene (variant 1) was synthesized at GenScript and cloned into pCDH-CMV-MCS-EF1-Puro plasmid (System Biosciences, Inc); fused on or other part: EML4 N-terminal part (variant 1: exons 1-13, with the coiled-coil that oligomerises the fusion) fused to the intracellular part of ALK, which contains the kinase domain; Q9HC35 (Echinoderm microtubule-associated protein-like 4)
T1 sequence (Q9UM73 whole entry, stated change not applied, the tested form may be a part): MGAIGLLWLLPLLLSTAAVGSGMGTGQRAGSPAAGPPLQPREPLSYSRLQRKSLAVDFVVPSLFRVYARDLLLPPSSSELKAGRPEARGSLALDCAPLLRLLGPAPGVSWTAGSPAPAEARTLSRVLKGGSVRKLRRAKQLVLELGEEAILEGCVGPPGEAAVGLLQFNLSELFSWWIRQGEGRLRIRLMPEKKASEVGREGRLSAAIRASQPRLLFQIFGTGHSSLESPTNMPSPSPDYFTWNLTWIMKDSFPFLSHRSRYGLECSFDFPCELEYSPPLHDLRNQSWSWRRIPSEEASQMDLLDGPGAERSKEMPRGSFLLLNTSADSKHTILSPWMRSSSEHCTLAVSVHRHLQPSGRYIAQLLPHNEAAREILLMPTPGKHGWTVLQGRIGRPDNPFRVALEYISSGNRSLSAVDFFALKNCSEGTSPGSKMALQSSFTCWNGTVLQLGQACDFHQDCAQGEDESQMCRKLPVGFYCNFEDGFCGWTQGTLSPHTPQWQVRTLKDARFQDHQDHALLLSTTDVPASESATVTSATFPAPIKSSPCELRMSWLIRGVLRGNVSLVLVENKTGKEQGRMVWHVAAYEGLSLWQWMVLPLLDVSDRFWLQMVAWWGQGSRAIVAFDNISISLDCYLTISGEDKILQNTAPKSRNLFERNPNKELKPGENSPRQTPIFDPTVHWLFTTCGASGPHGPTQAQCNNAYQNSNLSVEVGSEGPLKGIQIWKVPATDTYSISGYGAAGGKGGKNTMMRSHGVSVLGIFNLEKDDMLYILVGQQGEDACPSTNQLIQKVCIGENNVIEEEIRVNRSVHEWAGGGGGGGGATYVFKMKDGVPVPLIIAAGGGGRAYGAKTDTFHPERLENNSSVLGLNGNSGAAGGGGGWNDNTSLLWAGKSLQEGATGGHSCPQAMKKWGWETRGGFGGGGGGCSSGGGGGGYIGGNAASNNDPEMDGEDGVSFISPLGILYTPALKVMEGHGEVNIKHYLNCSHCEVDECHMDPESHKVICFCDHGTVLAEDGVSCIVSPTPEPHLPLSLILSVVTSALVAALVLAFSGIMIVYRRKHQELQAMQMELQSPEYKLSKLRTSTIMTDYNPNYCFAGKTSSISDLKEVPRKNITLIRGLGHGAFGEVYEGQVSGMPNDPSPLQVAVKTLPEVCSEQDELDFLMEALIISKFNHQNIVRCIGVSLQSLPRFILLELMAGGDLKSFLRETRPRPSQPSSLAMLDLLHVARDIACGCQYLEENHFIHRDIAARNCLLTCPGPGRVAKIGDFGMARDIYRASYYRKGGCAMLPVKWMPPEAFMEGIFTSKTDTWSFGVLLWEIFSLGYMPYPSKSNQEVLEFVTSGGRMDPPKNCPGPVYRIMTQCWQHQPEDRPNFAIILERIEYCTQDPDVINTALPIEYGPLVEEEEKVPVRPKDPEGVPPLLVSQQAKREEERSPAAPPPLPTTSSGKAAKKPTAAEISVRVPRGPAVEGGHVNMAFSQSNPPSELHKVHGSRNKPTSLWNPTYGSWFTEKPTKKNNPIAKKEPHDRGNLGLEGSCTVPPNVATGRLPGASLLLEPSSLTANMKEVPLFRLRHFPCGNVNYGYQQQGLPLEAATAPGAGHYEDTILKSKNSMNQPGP
The following applies: anti-cell proliferation, 72 hours. As to the method: Cloning and Ba/F3 or NIH3T3 Stable Cell Line Creation
The EML4-ALK gene (variant 1) was synthesized at GenScript and cloned into pCDH-CMV-MCS-EF1-Puro plasmid (System Biosciences, Inc). Ba/F3-EML4-ALK wild type were generated by transducing Ba/F3 cells with lentivirus containing EML4-ALK wide type. Stable cell lines were selected by puromycin treatment, followed by IL-3 withdrawal. Briefly, 5×10^6 Ba/F3 cells were transduced with lentivirus supernatant in the presence of 8 μg/mL protamine sulfate. The transduced cells were subsequently selected with 1 μg/mL puromycin in the presence of IL3-containing medium RPMI1640, plus 10% FBS. After 10-12 days of selection, the surviving cells were further selected for IL3 independent growth.
(§1) Cell Proliferation Assays:
(§2) Two thousand cells per well were seeded in 384 well white plate for 24 hrs, and then treated with compounds for 72 hours (37° C., 5% CO2). Cell proliferation was measured using CellTiter-Glo luciferase-based ATP detection assay (Promega) following the manufactures's protocol. IC50 determinations were performed using GraphPad Prism software (GraphPad, Inc., San Diego, Calif.).

The next test has as its system KG-1 cell (OP2-FGFR1). The following applies: Homo sapiens, anti-cell proliferation, 72 hours. As to the method:
(§3) Cell Lines and Cell Culture:
(§4) Colorectal cell line KM 12 (harboring endogenous TPM3-TRKA fusion gene) was obtained from NCI. Acute myelogenous cell line KG-1 (harboring endogenous OP2-FGFR1 fusion gene) were purchased from ATCC.
as §1, §2

The next test deals with KM12 (TPM3-TRKA). Conditions: Homo sapiens, anti-cell proliferation, 72 hours. As to the method: as §3, §4, §1, §2

As for `C[C@@H]1COc2cn3ncc4c3nc2N1Cc1cc(F)cnc1O[C@@H](C)CCNC4=O` [Compound 36, (8S,16R)-12-fluoro-8,16-dimethyl-5,6,7,8,16,17-hexahydro-4H,14H-1,19-(metheno)[1,4]oxazino[4,3-e]pyrazolo[3,4-h]pyrido[2,3-b] [1,5,7,11]oxatriazacyclotetra-decin-4-one], the IC50 is 60.9 nM against BaF3 EML4-ALK, 25.3 nM in the test with KG-1 cell (OP2-FGFR1) and below 0.2 nM in the test on KM12 (TPM3-TRKA).
As for `C[C@@H]1COc2cn3ncc4c3nc2N1Cc1cc(F)cnc1OCC1(CC1)NC4=O` [Compound 34, (4′R)-8′-fluoro-4′-methyl-3′H,4′H,6′H,12′H,14′H,15′H-spiro[cyclopropane-1,13′-[2,11]dioxa[5,10,14,17,18,19]hexaaza[18,1](metheno)[1,4]oxazino[3,4-i]pyrazolo[4,3-f]pyrido[3,2-l][1,4,8,10]oxatriazacyclotridecin]-15′-one], the IC50 at BaF3 EML4-ALK was 23.7 nM; in the test with KG-1 cell (OP2-FGFR1), 12.5 nM; with KM12 (TPM3-TRKA) it was below 0.2 nM.
Regarding `CC1CCNC(=O)c2cnn3cc4c(nc23)N(Cc2cc(F)cnc2O1)[C@H](C)CO4` (stereo partly drawn) [Compound 69, (16R)-12-fluoro-8,16-dimethyl-5,6,7,8,16,17-hexahydro-4H,14H-1,19-(metheno)[1,4]oxazino[4,3-e]pyrazolo[3,4-h]pyrido[2,3-b] [1,5,7,11]oxatriazacyclotetradecin-4-one], the IC50 on BaF3 EML4-ALK is 87.9 nM; in the test with KG-1 cell (OP2-FGFR1), 23.7 nM; in the test with KM12 (TPM3-TRKA), below 0.2 nM.
Regarding `C[C@@H]1COc2ncc(F)cc2CN2C[C@@H](F)COc3cn4ncc(c4nc32)C(=O)N1` [Compound 94, (4R,14R)-4,9-difluoro-14-methyl-4,5,14,15-tetrahydro-3H,7H-19,1-(metheno)[1,4]oxazepino[3,4-i]pyrazolo[4,3-f]pyrido[3,2-l] [1,4,8,10]oxatriazacyclotridecin-16(13H)-one], the IC50 is 6110 nM in the test on KG-1 cell (OP2-FGFR1) and 40.3 nM in the test with KM12 (TPM3-TRKA).
As for `C[C@@H]1COc2ncc(F)cc2CN2C[C@H](O)COc3cn4ncc(c4nc32)C(=O)N1` [Compound 61, (4S,14R)-9-fluoro-4-hydroxy-14-methyl-4,5,14,15-tetrahydro-3H,7H-19,1-(methano)[1,4]-oxazepino[3,4-i]pyrazolo[4,3-f]-pyrido[3,2-l][1,4,8,10]oxatriaza-cyclotridecin-16(13H)-one], the results for the IC50 at BaF3 EML4-ALK, with KG-1 cell (OP2-FGFR1) and in the test on KM12 (TPM3-TRKA) were 4000 nM, 482 nM and 482 nM, respectively.
In the case of `C[C@H]1CNC(=O)c2cnn3cc4c(nc23)N(Cc2cc(F)cnc2O1)C1(CO4)CC(F)(F)C1` [Compound 64, (12′S)-3,3,8′-trifluoro-12′-methyl-3′H,6′H,12′H,13′H,14′H,15′H-spiro[cyclobutane-1,4′-[2,11]-dioxa[5,10,14,17,18,19]hexaaza-[18,1](metheno)[1,4]oxazino[3,4-i]pyrazolo[4,3-f]pyrido[3,2-l] [1,4,8,10]oxatriazacyclotridecin]-15′-one], the IC50 is 1230 nM on BaF3 EML4-ALK, 10000 nM with KG-1 cell (OP2-FGFR1) and below 0.2 nM in the test with KM12 (TPM3-TRKA).
In the same order, the values of `C[C@@H]1COc2ncc(F)cc2CN2c3nc4c(cnn4cc3OC[C@H]2c2ccccc2)C(=O)N1` [Compound 46, (4R,13R)-8-fluoro-13-methyl-4-phenyl-3,4,13,14-tetrahydro-6H-18,1-(metheno)[1,4]oxazino[3,4-i]pyrazolo[4,3-f]pyrido[3,2-1][1,4,8,10]oxatriazacyclotridecin-15(12H)-one] are 1060 nM, 0.2 nM and below 0.2 nM.
Turning to `CC[C@@H]1COc2ncc(F)cc2CN2c3nc4c(cnn4cc3OC[C@H]2C)C(=O)N1` [Compound 24, (4R,13R)-13-ethyl-8-fluoro-4-methyl-3,4,13,14-tetrahydro-6H-18,1-(metheno)[1,4]oxazino[3,4-i]pyrazolo[4,3-f]pyrido[3,2-l] [1,4,8,10]oxatriazacyclotridecin-15(12H)-one], the IC50 on BaF3 EML4-ALK came out at 104 nM; in the test with KG-1 cell (OP2-FGFR1) it was 50 nM.
`C[C@@H]1COc2ncc(F)cc2CN2c3nc4c(cnn4cc3OC[C@H]2C#N)C(=O)N1` [Compound 66, (4R,13R)-8-fluoro-13-methyl-15-oxo-3,4,12,13,14,15-hexahydro-6H-18,1-(metheno)[1,4]oxazino[3,4-i]pyrazolo[4,3-f]pyrido[3,2-1][1,4,8,10]oxatriazacyclotridecine-4-carbonitrile]: the results for the IC50 in the test with KG-1 cell (OP2-FGFR1) and in the test on KM12 (TPM3-TRKA) were 10000 nM and 463 nM, respectively.
In the same order, the values of `C[C@H]1CNC(=O)c2cnn3cc4c(nc23)N(Cc2cc(F)cnc2O1)C[C@@H](O)CO4` [Compound 90, (4R,13S)-9-fluoro-4-hydroxy-13-methyl-4,5,14,15-tetrahydro-3H,7H-19,1-(metheno)[1,4]-oxazepino[3,4-i]pyrazolo[4,3-f]pyrido[3,2-l][1,4,8,10]oxatriaza-cyclotridecin-16(13H)-one] are 359 nM and below 0.2 nM.
As for `C[C@H]1CNC(=O)c2cnn3cc4c(nc23)N(Cc2cc(F)cnc2O1)C(C)(C)CO4` [Compound 37, (12S)-8-fluoro-4,4,12-trimethyl-3,4,13,14-tetrahydro-6H-18,1-(metheno)[1,4]oxazino[3,4-i]-pyrazolo[4,3-f]pyrido[3,2-l] [1,4,8,10]oxatriazacyclotridecin-15(12H)-one], the IC50 turned out to be 1550 nM at BaF3 EML4-ALK and 5000 nM with KG-1 cell (OP2-FGFR1).
For the compound `C[C@@H]1COc2ncc(F)cc2CN2c3nc4c(cnn4cc3OC[C@H]2Cc2ccccc2)C(=O)N1` [Compound 39, (4R,13R)-4-benzyl-8-fluoro-13-methyl-3,4,13,14-tetrahydro-6H-18,1-(metheno)[1,4]oxazino[3,4-i]pyrazolo[4,3-f]pyrido[3,2-l] [1,4,8,10]oxatriazacyclotridecin-15(12H)-one], the IC50 is 1610 nM on BaF3 EML4-ALK and 73.7 nM in the test with KG-1 cell (OP2-FGFR1).
Regarding `C[C@H]1CNC(=O)c2cnn3cc4c(nc23)N(Cc2cc(F)cnc2O1)C[C@H](O)CO4` [Compound 62, (4S,13S)-9-fluoro-4-hydroxy-13-methyl-4,5,14,15-tetrahydro-3H,7H-19,1-(metheno)[1,4]-oxazepino[3,4-i]pyrazolo[4,3-f]-pyrido[3,2-l][1,4,8,10]oxatria-cyclotridecin-16(13H)-one], the IC50 in the test on KG-1 cell (OP2-FGFR1) amounted to 681 nM; in the test on KM12 (TPM3-TRKA), 94.8 nM.
In the same order, the values of `C[C@@H]1COc2cn3ncc4c3nc2N1Cc1cc(F)cnc1OCC(O)(O)CNC4=O` [Compound 81, (16R)-12-fluoro-7,7-dihydroxy-16-methyl-5,6,7,8,16,17-hexahydro-4H,14H-1,19-(metheno)[1,4]oxazino[4,3-e]pyrazolo[3,4-h]pyrido[2,3-b][1,5,7,11]oxatriazacyclotetradecin-4-one] are 166 nM and below 0.2 nM.
Regarding `C[C@H]1CNC(=O)c2cnn3cc4c(nc23)N(Cc2cc(F)cnc2O1)[C@H](Cc1ccccc1)CO4` [Compound 38, (4R,12S)-4-benzyl-8-fluoro-12-methyl-3,4,13,14-tetrahydro-6H-18,1-(metheno)[1,4]oxazino[3,4-i]pyrazolo[4,3-f]pyrido[3,2-l] [1,4,8,10]oxatriazacyclotridecin-15(12H)-one], the IC50 against BaF3 EML4-ALK came out at 7240 nM; in the test with KG-1 cell (OP2-FGFR1), 357 nM.
